From PMC8622415, “Inhibitory Effect of Chlorogenic Acid Analogues Comprising Pyridine and Pyrimidine on α-MSH-Stimulated Melanogenesis and Stability of Acyl Analogues in Methanol” (Pharmaceuticals, 2021)
Several values for one entry are separate records, joined by “and”; a condition that tells them apart may be missing. Identical values can stand only once. Like-named read-outs stand apart in the source and are kept apart here.

Key:
[1] = Stability of CGA acyl analogues in methanol solution (HPLC); type: physicochemical; conditions: 25 °C
Procedure: The stability of the synthesized acyl analogues was measured in methanol, since the acetyl analogue of CGA was highly unstable in methanol solution. First, 10 mg of the sample was dissolved in 2 mL of methanol and stored at 25 °C. Then, purity was analyzed using HPLC (Shimadzu LC solution, Kyoto, Japan) for 28 days. The samples in methanol solution were diluted 10 times in the HPLC mobile phase ((A) 0.5% formic acid in H2O (B) 0.5% formic acid in acetonitrile (ACN), A/B = 20/80) and injected in HPLC column (inertsil ODS-3V C18 column (250 × 4.00 mm i.d; 5 μm)). Finally, the amount of acyl compound remaining in the solution was measured by calculating the area under the curve of the HPLC chromatogram, and the results were expressed in percentage units.

[2] = tested on: B16 melanoma cells; test: Inhibition of α-MSH-stimulated melanin formation (melanin measurement); type: cell-based, Mouse; conditions: α-MSH 10.0 nM, melanin released into medium, absorbance 405 nm, read-out: IC50, inhibition of α-MSH-induced melanogenesis
Procedure: Mouse melanoma B16 cells were cultured in a 96-well culture plate (2.5 × 10^3 cells/well). Culture media were washed from each culture plates after 24 h and treated with freshly prepared 10% FBS-DMEM medium, various concentrations (such as 0.5, 1.0, 3.0, 10.0, 30.0, and 100.0 µM) of compound samples, and stimulants (α-MSH, 10.0 nM). Then, it was incubated at 37 °C for 72 h, and the amount of melanin released into the medium was determined by measuring the absorbance at wavelength of 405 nm using spectrophotometer (Molecular Device, San Jose, CA, USA). The absorbance of stimulated cells using α-MSH was used as a control, and the inhibition level was calculated by subtracting the absorbance values of cells that were not stimulated. The absorbance values were compared with standard curves obtained with synthetic melanin. The synthetic melanin (Sigma-Aldrich, St. Louis, MO, USA) was dissolved in 0.85 M KOH-10% DMSO solution; then, it was serially diluted with 10% FBS-DMEM medium and then aliquoted into a 96-well culture plate. Then, the absorbance of melanin was measured by a spectrophotometer at 405 nm, and a standard curve was prepared. Using this value, the amount of melanin released out of the cell was directly calculated. Results obtained by three or more sets of experiments were expressed as mean ± standard error.

## CC(=O)Oc1ccc(/C=C/C(=O)OC2CCCCC2)cc1OC(C)=O [Compound 18]
[1]; day 0
  Amount remaining in methanol (HPLC area): 99.5029%
[1]; day 1
  Amount remaining in methanol (HPLC area): 71.1918%
[1]; day 2
  Amount remaining in methanol (HPLC area): 55.5162%
[1]; day 3
  Amount remaining in methanol (HPLC area): 43.5699%
[1]; day 4
  Amount remaining in methanol (HPLC area): 33.7154%
[1]; day 5
  Amount remaining in methanol (HPLC area): 27.3752%
[1]; day 7
  Amount remaining in methanol (HPLC area): 16.5047%
[1]; day 9
  Amount remaining in methanol (HPLC area): 10.5572%
[1]; day 11
  Amount remaining in methanol (HPLC area): 6.9200%
[1]; day 21
  Amount remaining in methanol (HPLC area): 1.4408%
[1]; within 10 days, HPLC
  Amount decomposed in methanol solution: more than 90%

## OC[C@H]1O[C@@H](Oc2ccc(O)cc2)[C@H](O)[C@@H](O)[C@@H]1O [Arbutin, reference compound]
[2]; Mus musculus, B16, 72 h
  IC50: 380 ± 9.5 µM

## CCCCCC(=O)Oc1ccc(/C=C/C(=O)OC2CCCCC2)cc1OC(=O)CCCCC [Compound 13b, (E)-4-(3-(Cyclohexyloxy)-3-oxoprop-1-en-1-yl)-1,2-phenylene dihexanoate]
[2]; Mus musculus, B16, 72 h
  IC50: 1.3 ± 0.4 µM
[1]; day 0
  Amount remaining in methanol (HPLC area): 99.8006%
[1]; day 1
  Amount remaining in methanol (HPLC area): 93.7356%
[1]; day 2
  Amount remaining in methanol (HPLC area): 89.9637%
[1]; day 3
  Amount remaining in methanol (HPLC area): 86.8066%
[1]; day 4
  Amount remaining in methanol (HPLC area): 83.9188%
[1]; day 5
  Amount remaining in methanol (HPLC area): 82.1086%
[1]; day 7
  Amount remaining in methanol (HPLC area): 77.5962%
[1]; day 9
  Amount remaining in methanol (HPLC area): 74.0389%
[1]; day 11
  Amount remaining in methanol (HPLC area): 70.6843%
[1]; day 21
  Amount remaining in methanol (HPLC area): 58.4127%
[1]; day 28
  Amount remaining in methanol (HPLC area): 52% and 52.5500%

## COc1ccc(-c2ccnc(NCc3ccccc3Cl)c2)cc1OC [Compound 6d, N-(2-Chlorobenzyl)-4-(3,4-dimethoxyphenyl)pyridin-2-amine]
[2]; Mus musculus, B16, 72 h
  IC50: 8.5 ± 0.7 µM
[2]; 72 h
  IC50: 8 ± 1 µM

## COc1ccc(/C=C/C(=O)OC2CCCCC2)cc1OC [Compound 17, (E)-Cyclohexyl 3-(3,4-dimethoxyphenyl)acrylate]
[2]; Mus musculus, B16, 72 h
  IC50: > 100 µM

## COc1ccc(-c2ccnc(NCc3ccccc3C(F)(F)F)c2)cc1OC [Compound 6g, 4-(3,4-Dimethoxyphenyl)-N-(2-(trifluoromethyl)benzyl)pyridin-2-amine]
[2]; Mus musculus, B16, 72 h
  IC50: 7.5 ± 0.7 µM

## O=c1cc(CO)occ1O [Kojic acid, reference compound]
[2]; Mus musculus, B16, 72 h
  IC50: 54 ± 1.5 µM

## CC(C)(C)C(=O)Oc1ccc(/C=C/C(=O)OC2CCCCC2)cc1OC(=O)C(C)(C)C [Compound 13c, (E)-4-(3-(Cyclohexyloxy)-3-oxoprop-1-en-1-yl)-1,2-phenylene bis(2,2-dimethylpropanoate)]
[2]; Mus musculus, B16, 72 h
  IC50: 1.9 ± 0.1 µM
[1]; day 0
  Amount remaining in methanol (HPLC area): 99.5492%
[1]; day 1
  Amount remaining in methanol (HPLC area): 99.3034%
[1]; day 2
  Amount remaining in methanol (HPLC area): 99.1518%
[1]; day 3
  Amount remaining in methanol (HPLC area): 99.0038%
[1]; day 4
  Amount remaining in methanol (HPLC area): 98.8061%
[1]; day 5
  Amount remaining in methanol (HPLC area): 98.5395%
[1]; day 7
  Amount remaining in methanol (HPLC area): 97.9332%
[1]; day 9
  Amount remaining in methanol (HPLC area): 97.4173%
[1]; day 11
  Amount remaining in methanol (HPLC area): 96.8033%
[1]; day 21
  Amount remaining in methanol (HPLC area): 95.0243%
[1]; day 28
  Amount remaining in methanol (HPLC area): 94% and 94.0833%

## COc1ccc(-c2ccnc(NCc3cccc(Cl)c3)c2)cc1OC [Compound 6c, N-(3-Chlorobenzyl)-4-(3,4-dimethoxyphenyl)pyridin-2-amine]
[2]; Mus musculus, B16, 72 h
  IC50: 5 ± 1.4 µM

## COc1ccc(-c2ccnc(NCc3cccc(Cl)c3)n2)cc1OC [Compound 10c, N-(3-Chlorobenzyl)-4-(3,4-dimethoxyphenyl)pyrimidin-2-amine]
[2]; Mus musculus, B16, 72 h
  IC50: 32 ± 2 µM

## O=C(/C=C/c1ccc(OC(=O)C2CCCCC2)c(OC(=O)C2CCCCC2)c1)OC1CCCCC1 [Compound 13d, (E)-4-(3-(Cyclohexyloxy)-3-oxoprop-1-en-1-yl)-1,2-phenylene dicyclohexanecarboxylate]
[2]; Mus musculus, B16, 72 h
  IC50: 2.3 ± 0.2 µM
[1]; day 0
  Amount remaining in methanol (HPLC area): 98.9750%
[1]; day 1
  Amount remaining in methanol (HPLC area): 96.9973%
[1]; day 2
  Amount remaining in methanol (HPLC area): 95.8267%
[1]; day 3
  Amount remaining in methanol (HPLC area): 94.6557%
[1]; day 4
  Amount remaining in methanol (HPLC area): 93.5713%
[1]; day 5
  Amount remaining in methanol (HPLC area): 93.0573%
[1]; day 7
  Amount remaining in methanol (HPLC area): 91.6229%
[1]; day 9
  Amount remaining in methanol (HPLC area): 90.6724%
[1]; day 11
  Amount remaining in methanol (HPLC area): 89.8768%
[1]; day 21
  Amount remaining in methanol (HPLC area): 87.5571%

## COc1ccc(-c2ccnc(NCc3cccc(C(F)(F)F)c3)c2)cc1OC [Compound 6f, 4-(3,4-Dimethoxyphenyl)-N-(3-(trifluoromethyl)benzyl)pyridin-2-amine]
[2]; Mus musculus, B16, 72 h
  IC50: 2.5 ± 0.7 µM

## COc1ccc(-c2ccnc(NCc3ccccc3Cl)n2)cc1OC [Compound 10d, N-(2-Chlorobenzyl)-4-(3,4-dimethoxyphenyl)pyrimidin-2-amine]
[2]; Mus musculus, B16, 72 h
  IC50: 40 ± 8 µM

## COc1ccc(-c2ccnc(NCc3cccc(C(F)(F)F)c3)n2)cc1OC [Compound 10f, 4-(3,4-Dimethoxyphenyl)-N-(3-(trifluoromethyl)benzyl)pyrimidin-2-amine]
[2]; Mus musculus, B16, 72 h
  IC50: 20 ± 1 µM

## CC(C)COc1ccc(/C=C/C(=O)OC2CCCCC2)cc1OCC(C)C [Compound 15, (E)-Cyclohexyl 3-(3,4-diisobutoxyphenyl)acrylate]
[2]; Mus musculus, B16, 72 h
  IC50: > 100 µM

## COc1ccc(-c2ccnc(NCc3ccc(Cl)cc3)c2)cc1OC [Compound 6b, N-(4-Chlorobenzyl)-4-(3,4-dimethoxyphenyl)pyridin-2-amine]
[2]; Mus musculus, B16, 72 h
  IC50: 4.5 ± 0.7 µM

## COc1ccc(-c2ccnc(NCc3ccccc3)n2)cc1OC [Compound 10a, N-Benzyl-4-(3,4-dimethoxyphenyl)pyrimidin-2-amine]
[2]; Mus musculus, B16, 72 h
  IC50: > 100 µM

## COc1ccc(-c2ccnc(NCc3ccc(Cl)cc3)n2)cc1OC [Compound 10b, N-(4-Chlorobenzyl)-4-(3,4-dimethoxyphenyl)pyrimidin-2-amine]
[2]; Mus musculus, B16, 72 h
  IC50: 54 ± 6 µM

## CCCC(=O)Oc1ccc(/C=C/C(=O)OC2CCCCC2)cc1OC(=O)CCC [Compound 13a, (E)-4-(3-(Cyclohexyloxy)-3-oxoprop-1-en-1-yl)-1,2-phenylene dibutyrate]
[2]; Mus musculus, B16, 72 h
  IC50: 1.1 ± 0.1 µM
[2]; 72 h
  IC50: 1 ± 0.1 µM
[1]; day 0
  Amount remaining in methanol (HPLC area): 99.3294%
[1]; day 1
  Amount remaining in methanol (HPLC area): 91.3520%
[1]; day 2
  Amount remaining in methanol (HPLC area): 85.3800%
[1]; day 3
  Amount remaining in methanol (HPLC area): 80.3685%
[1]; day 4
  Amount remaining in methanol (HPLC area): 75.4921%
[1]; day 5
  Amount remaining in methanol (HPLC area): 72.147%
[1]; day 7
  Amount remaining in methanol (HPLC area): 64.7751%
[1]; day 9
  Amount remaining in methanol (HPLC area): 59.4842%
[1]; day 11
  Amount remaining in methanol (HPLC area): 55.1819%
[1]; day 21
  Amount remaining in methanol (HPLC area): 43.3505%
[1]; day 28
  Amount remaining in methanol (HPLC area): 39% and 39.0229%

## COc1ccc(-c2ccnc(NCc3ccccc3)c2)cc1OC [Compound 6a, N-Benzyl-4-(3,4-dimethoxyphenyl)pyridin-2-amine]
[2]; Mus musculus, B16, 72 h
  IC50: 17 ± 4 µM

## COc1ccc(-c2ccnc(NCc3ccc(C(F)(F)F)cc3)c2)cc1OC [Compound 6e, 4-(3,4-Dimethoxyphenyl)-N-(4-(trifluoromethyl)benzyl)pyridin-2-amine]
[2]; Mus musculus, B16, 72 h
  IC50: 8.5 ± 0.7 µM

## COc1ccc(-c2ccnc(NCc3ccc(C(F)(F)F)cc3)n2)cc1OC [Compound 10e, 4-(3,4-Dimethoxyphenyl)-N-(4-(trifluoromethyl)benzyl)pyrimidin-2-amine]
[2]; Mus musculus, B16, 72 h
  IC50: > 100 µM
